Test results reported in patent publication US20030148963A1 (priority 2000, published 2003).
Where two headings read alike, the source gives them in different places. Marks after values point to notes of the source that are not given here.

Tests used:
IL-6 = assay type: cell-based; settings: spleen cells of mice given 12.5 mg/kg 4 days a week for 4 weeks; mean ± SEM, 4 mice
IC-21 cells = experiment: Viability and cell number of IC-21 cells; assay type: cell-based, murine; settings: IC-21, etoposide-containing medium at concentrations 0.1 and 0.01 mM (so in the source); preliminary experiments, data not shown
Experimental: These cells display many typical features of the macrophage phenotype and are therefore a suitable model for studying cytoline and chemokine release during inflammation (16). The cells were maintained in continous culture using RPMI-1640 supplemented with 10% FCS, L-glutamine, and gentamycin. When the cells had grown to about 70% confluency, they were seeded into a 24-well-plate (Nunc) at a concentration of 1×10^5 per well and incubated at 37° C. in 5% CO2 for 24 h. After 24 h the medium was changed into etoposide-containing medium at concentrations 0.1 and 0.01 mM. […] After 24 h of incubation, the cells were washed once with PBS, and reincubated with medium containing different concentrations (1, 10, 100, 1000 ng/ml) of LPS (Difco) and IFN-γ (10, 50, 100 u/nml). The interferon-γ was purified from the supernatants from Chinese hanater ovary (CHO) cells transfected with the murine IFN-γ gene (hybridoma kindly provided by Dr. Morris, Department of Biological Sciences, University of Warwick, Coventry, UK). After 2 and 24 h of incubation the supernatants were collected and stored at −20° C. until analysis.

peripheral leukocytes [1] = experiment: Hematological analyses in CII immunized mice; assay type: in vivo, B10.QxDBA/1 female mice
Experimental: (§1) Mice were bled from the tail into heparinized tubes at different time-points. The leukocytes were counted in a hemacytometer (Toa Medical Electronics, Kobe, Japan). Fifty microliters of the heparinized blood was analyzed in a FACScan cytometer (Becton Dickinson, San Jose, Calif.) to determine the percentages of lymphocytes, granulocytes, and monocytes. The absolute numbers of different leukocyte subsets were then calculated from the total leukocyte counts.

TNF-α = experiment: Serum TNF-α in S. aureus infected mice (ELISA); assay type: in vivo, NMRI mice; settings: six days after 1.4×10^7 CFU S. aureus; 12.5 mg/kg from three days prior; mean ± SEM, n = 6
Experimental: The levels of TNF.- were determined using sandwich enzyme-linked immunosorbent assays (ELISA) kit from R&D Systems Minneapolis, Minn.).

TNF [2] = assay type: cell-based, NMRI mice; settings: 24 h supernatant, mean ± SEM
Experimental: Spleens were obtained from healthy NMRI mice. […] The cells (2×10^61/Ml) were cultured in Iscove's complete medium (10% FCS, 5×10^−5 M 2-mercaptoethanol, 2 mM L-glutamine, and 50 μg/ml gentamicin). […] To determine the proliferative response, the cells were cultured in 96-well plates (Nunc) for 3 days. The cultures were pulsed with 1 μCi of (^3H)TdR (Amersham, Bucks, UK) 12 h before harvest and calculation of TdR uptake in a beta counter. The levels of TNF.- were determined using sandwich enzyme-linked immunosorbent assays (ELISA) kit from R&D Systems Minneapolis, Minn.).

[3] = test system: granulocyte mediated inflammatory response; experiment: Olive oil induced inflammation (foot-pad swelling); assay type: in vivo; settings: non-infected mice, n=6, 24 h after injection; no difference to controls
Experimental: Olive oil induces in vivo a strong granulocyte mediated but T cell independent inflammatory response. Inflammation was induced by injection of 30 μl olive oil (Apoteksbolaget AB, Göteborg, Sweden) intradermally in hind foot-pad. […] Foot-pad swelling was registered 24 h after injection using an Oditest spring caliper. The intensity of the olive oil induced inflammation was expressed (foot-pad thickness^24 h−foot-pad thickness^0 h)×10^−3 cm.

peripheral leukocytes [4] = experiment: Peripheral blood cell count in naive mice; assay type: in vivo; settings: 12.5 mg/kg 4 days per week for 4 weeks, 3 days after last treatment
Experimental: as §1

[5] = test system: T cell mediated DTH reaction; experiment: Delayed type hypersensitivity to oxazolone (ear swelling); assay type: in vivo, mice; settings: 12.5 mg/kg two days, the day before and 1 h before challenge; 24 h; similar to controls
TNF [6] = assay type: cell-based, NMRI mice; settings: spleen cells from non-infected in vivo etoposide-treated mice; mean ± SEM, four mice
[7] = test system: collagen induced arthritis (CIA); experiment: Collagen induced arthritis, clinical evaluation; assay type: in vivo, B10.QxDBA/1 female mice
Experimental: B10.QxDBA/1 female mice were used in all experiments. They were aged from 11-16 weeks. In all experiments the mice were age-matched. The mice were kept in the animal facility at the University of Göteborg, under standard conditions of light and temperature and fed standard laboratory chow and water ad libitum.
Rat type II collagen (CII) from a chondrosarcoma was prepared by pepsin digestion and purification as described previously (9). The preparation of CII was dissolved at a concentration of 2 mg/ml in 0.1M acetic acid and stored at 4° C. Arthritis was induced by intradermal injection at the base of the tail with 50 μl of 100 μg CII emulsified with an equal volume of complete Freuid/s adjuvant (CFA; containing Mycobacterium butyricum, Difco, Detroit, Mich.). Mice were boosted with the same volume and concentrations of CII emulsified in incomplete Freund's adjuvant (IFA; Difco) 21 days after the first immunization.
Mice were primed and booster-immunized with CII. They were divided into three groups. […] The third group of mice were controls (n—17), receiving treatment with PBS. Prior to the start of the experiment, six mice in each group were bled for hematological analyses.
At regular time points the mice were examined concerning development of arthritis. Arthritis was defined as visible joint erythema and/or swelling of at least one joint. To evaluate the intensity of arthritis, a clinical scoring system of 0 to 3 points for each limb was used (1 point, mild swelling and/or erythema; 2 points, moderate swelling and erythema; 3 points, marked swelling and erythema). The arthritic index was constructed by adding the scores from all four limbs for each animal (11).

[8] = Etoposide-pretreated, Day-2 (prior to experiment, baseline)
[9] = Etoposide-treated (from day 40), Day 61
[10] = Etoposide-treated (from day 40), Day-2 (baseline)

In the case of `COc1cc([C@@H]2c3cc4c(cc3[C@@H](O[C@@H]3O[C@@H]5CO[C@@H](C)O[C@H]5[C@H](O)[C@H]3O)[C@H]3COC(=O)[C@H]23)OCO4)cc(OC)c1O` [Etoposide], the “IL-6, Con A” value (IL-6) is reported as 74 ± 15^a) pg/ml, the “IL-6, TSST-1” value (IL-6) is reported as 10 ± 3 pg/mL and the “Cell viability or total cell numbers” value (IC-21 cells) is reported as “not to influence the cell viability or total cell numbers”. The Granulocytes (peripheral leukocytes [1]; Etoposide-pretreated, Day 61) was 698 ± 341^b × 10^4/ml, the Lymphocytes (peripheral leukocytes [1]; Etoposide-pretreated, Day 61) was 7.1 ± 3.4 × 10^6/ml and the Monocytes (peripheral leukocytes [1]; Etoposide-pretreated, Day 61) was 67 ± 20 × 10^4/ml. The Granulocytes (peripheral leukocytes [1]; [8]) was 71 ± 13 × 10^4/ml, the Lymphocytes (peripheral leukocytes [1]; [8]) was 4.7 ± 0.3 × 10^6/ml and the Monocytes (peripheral leukocytes [1]; [8]) was 18 ± 4 × 10^4/ml. The Granulocytes (peripheral leukocytes [1]; [9]) was 991 ± 326^b × 10^4/ml, the Lymphocytes (peripheral leukocytes [1]; [9]) was 14.3 ± 3.3^b × 10^6/ml and the Monocytes (peripheral leukocytes [1]; [9]) was 92 ± 24^a × 10^4/ml. The Granulocytes (peripheral leukocytes [1]; [10]) was 87 ± 20 × 10^4/ml, the Lymphocytes (peripheral leukocytes [1]; [10]) was 5.9 ± 0.8 × 10^6/ml and the Monocytes (peripheral leukocytes [1]; [10]) was 19 ± 3 × 10^4/ml. The “Serum TNF-α” value (TNF-α) was 30 ± 12 pg/mL, the “TNF, ConA stimulated” value (TNF [2]; etoposide 1 μM, four mice) was 167 ± 29 pg/mL and the “TNF, TSST-1 stimulated” value (TNF [2]; etoposide 1 μM, four mice) was 64 ± 20 pg/mL. For the same compound, the “TNF, ConA stimulated” value (TNF [2]; etoposide 10 μM) was 66 ± 19^b pg/ml, the “TNF, TSST-1 stimulated” value (TNF [2]; etoposide 10 μM) was 38 ± 8^b pg/ml and the “TNF, ConA stimulated” value (TNF [2]; etoposide 100 μM) was 10 ± 1^b pg/ml. The “TNF, TSST-1 stimulated” value (TNF [2]; etoposide 100 μM) was 16 ± 3^b pg/ml, the “Foot-pad swelling, olive oil induced inflammation” value [3] was 128±131 ×10^−3 cm and the Numbers of granulocytes (peripheral leukocytes [4]) was 1.1±0.4 ×10^4/ml. The Numbers of monocytes (peripheral leukocytes [4]) was 71±28 ×10^4/ml, the “DTH reaction to oxazolone (ear thickness increase)” value [5] was 32±6 ×10^−3 cm and the “TNF, ConA stimulated” value (TNF [6]) was 138 ± 17 pg/mL. For the same compound, the “TNF, TSST-1 stimulated” value (TNF [6]) was 77 ± 22 pg/mL, the “Arthritic score of diseased mice” value ([7]; Etoposide pretreated, Day 46) was 0 and the “Arthritic score of diseased mice” value ([7]; Etoposide pretreated, Day 53) was 0. For the same compound, the “Arthritic score of diseased mice” value ([7]; Etoposide pretreated, Day 61) was 0, the “Arthritic score of diseased mice” value ([7]; Etoposide treated (from day 40), Day 46, mean ± SEM) was 2.4 ± 0.2 (n = 5) and the “Arthritic score of diseased mice” value ([7]; Etoposide treated (from day 40), Day 53, mean ± SEM) was 5.4 ± 1.3 (n = 5). The “Arthritic score of diseased mice” value ([7]; Etoposide treated (from day 40), Day 61, mean ± SEM) was 5.6 ± 1.3 (n = 5), the “Mice with clinical signs of arthritis” value ([7]; Etoposide-pretreated: 12.5 mg/kg from two days prior to CII immunization, then 4 days weekly, almost nine weeks) was “none of 19” and the “Mice exhibiting arthritis at the end of the experiment” value ([7]; Etoposide-treated: 12.5 mg/kg 4 days per week from 40 days after immunization, 5 of 17, controls 53%) was 29%. The Changes in weight ([7]; between or within the groups (pretreated, treated, controls)) was “No significant changes in weight” and the “Reduction of frequency of disease” value ([7]; mice treated with etoposide at the onset of clinical arthritis) was 50%.
